System: H1 human embryonic stem cells
Test: Secondary assay: panel of compounds with growth factor combinations and muscimol, no activin A (Example 6, Table 5)
Assay type: cell-based
Conditions: no AA (with Wnt3a)
Method: Clusters of H1 human embryonic stem cells were grown on reduced growth factor […]™ (Invitrogen; Cat #356231)-coated tissue culture plastic. Cells were passaged using collagenase (Invitrogen; Cat #17104-019) treatment and gentle scraping, washed to remove residual enzyme, and plated with even dispersal at a ratio of 1:1 (surface area) on reduced growth factor […]™-coated 96-well black plates (Packard ViewPlates; PerkinElmer; Cat #6005182) using volumes of 100 μl/well. Cells were allowed to attach as clusters and then recover log phase growth over a 1 to 3 day period, feeding daily with MEF-conditioned medium supplemented with 8 ng/ml bFGF (R&D Systems; Cat #233-FB). Plates were maintained at 37° C., 5% CO2 in a humidified box throughout the duration of the assay. Stocks of growth factors purchased from R&D Systems were EGF (Cat #236-EG), FGF4 (Cat #235-F4), PDGF-A (Cat #221-AA), PDGF-D (Cat #1159-SB), PDGF-A/B (Cat #222-AB), and VEGF (Cat #293-VE). […] All growth factors were solubilized in PBS with 0.1% BSA (Sigma; Cat #A7888) and stored frozen at −80° C. […] Cat #D2650) and stored frozen at −80° C. Compounds were available as 5 mM stocks in 96-well plate format, solubilized in 100% DMSO and stored at −80° C. Compounds were further diluted to an intermediate concentration of 0.2 mM in 50 mM HEPES (Invitrogen; Cat #15630-080), 20% DMSO and stored at 4° C. All growth factors and inhibitors were prepared in a deep well, 96-well polypropylene plate, diluted to 5× intermediate stocks in DMEM:F12 base medium at the beginning of assay and stored at 4° C. A secondary screening assay was conducted, testing in triplicate and feeding on alternate days over the four-day assay timeframe. Assays were initiated by aspirating culture medium from each well followed by three washes in PBS to remove residual growth factors and serum. Test volumes of 80 μl per well were added back containing DMEM:F12 base medium (Invitrogen; Cat #11330-032) supplemented with 0.625% FCS (HyClone; […] All remaining growth factors were tested at a final assay concentration of 50 ng/ml (EGF, FGF4, PDGF-A, PDGF-A/B, VEGF). […] At the conclusion of four-days of culture, assay plates were washed twice with PBS, fixed with 4% paraformaldehyde (Alexis Biochemical; Cat #ALX-350-011) at room temperature for 20 minutes, then washed three times with PBS and permeabilized with 0.5% Triton X-100 (Sigma; Cat #T8760-2) for 20 minutes at room temperature. Cells were washed again three times with PBS and blocked with 4% chicken serum (Invitrogen; Cat #16110082) in PBS for 30 minutes at room temperature. Primary antibody (goat anti-human SOX17; R&D Systems; cat #AF1924) was diluted 1:100 in 4% chicken serum and added to each well for one hour at room temperature. Alexa Fluor 488 conjugated secondary antibody (chicken anti-goat IgG; Molecular Probes; Cat #AZ1467) was diluted 1:200 in PBS and added to each sample well after washing three times with PBS. To counterstain nuclei, 4 μg/ml Hoechst 33342 (Invitrogen; Cat #H3570) was added for ten minutes at room temperature. Plates were washed once with PBS and left in 100 μl/well PBS for imaging. Imaging was performed using an IN Cell Analyzer 1000 (GE Healthcare) utilizing the 51008bs dichroic for cells stained with Hoechst 33342 and Alexa Fluor 488. Exposure times were optimized from positive control wells and from untreated negative control wells stained with secondary antibody alone. Images from 15 fields per well were acquired to compensate for any cell loss during the bioassay and subsequent staining procedures. […] Segmentation for the nuclei was determined based on grayscale levels (baseline range 100-300) and nuclear size. Averages and standard deviations were calculated for each replicate data set. Total SOX17 protein expression was reported as total intensity or integrated intensity, defined as total fluorescence of the cell multiplied by the area of the cell. […]

[1] = EGF + FGF4 + PDGF-AB + Muscimol

| SMILES | Cell Number, % of positive control (EGF) | Cell Number, Average Total Cell Number (EGF) | Sox17 Expression, % of positive control (EGF) | Sox17 Expression, Average Total Intensity (EGF) | Cell Number, % of positive control (EGF + FGF4) | Cell Number, Average Total Cell Number (EGF + FGF4) | Sox17 Expression, % of positive control (EGF + FGF4) | Sox17 Expression, Average Total Intensity (EGF + FGF4) | Cell Number, % of positive control (EGF + FGF4 + PDGF-A + Muscimol) | Cell Number, Average Total Cell Number (EGF + FGF4 + PDGF-A + Muscimol) | Sox17 Expression, % of positive control (EGF + FGF4 + PDGF-A + Muscimol) | Sox17 Expression, Average Total Intensity (EGF + FGF4 + PDGF-A + Muscimol) | Cell Number, % of positive control (EGF + FGF4 + PDGF-A + VEGF) | Cell Number, Average Total Cell Number (EGF + FGF4 + PDGF-A + VEGF) | Sox17 Expression, % of positive control (EGF + FGF4 + PDGF-A + VEGF) | Sox17 Expression, Average Total Intensity (EGF + FGF4 + PDGF-A + VEGF) | Cell Number, % of positive control (EGF + FGF4 + PDGF-AB) | Cell Number, Average Total Cell Number (EGF + FGF4 + PDGF-AB) | Sox17 Expression, % of positive control (EGF + FGF4 + PDGF-AB) | Sox17 Expression, Average Total Intensity (EGF + FGF4 + PDGF-AB) | also measured |
| --- | --- | --- | --- | --- | --- | --- | --- | --- | --- | --- | --- | --- | --- | --- | --- | --- | --- | --- | --- | --- | --- |
| CN1CCC(=O)NCCCNc2ncccc2-c2ncnc(n2)Nc2cccc(c2)C1 [Compound 39, 9-Methyl-2,3,4,5,7,8,9,10-octahydro-16H-17,21-(azeno)-11,15-(metheno)pyrido[3,2-g][1,3,5,9,13,17]hexaazacyclotricosin-6(1H)-one] | 122.85% | 11615 | 0.09% | 1.49E+05 | 110.59% | 10456 | 2.98% | 5.11E+06 | 96.28% | 9103 | 0.43% | 7.32E+05 | 84.33% | 7973 | 3.09% | 5.30E+06 | 105.47% | 9972 | 0.94% | 1.62E+06 | Cell Number, % of positive control [1]: 111.48%; Cell Number, Average Total Cell Number [1]: 10540; Sox17 Expression, % of positive control [1]: 1.29%; Sox17 Expression, Average Total Intensity [1]: 2.22E+06; Cell Number, % of positive control (EGF + PDGF-A + VEGF): 180.34%; Cell Number, Average Total Cell Number (EGF + PDGF-A + VEGF): 17050; Sox17 Expression, % of positive control (EGF + PDGF-A + VEGF): 2.82%; Sox17 Expression, Average Total Intensity (EGF + PDGF-A + VEGF): 4.84E+06; Cell Number, % of positive control (FGF4 + PDGF-A + VEGF): 93.67%; Cell Number, Average Total Cell Number (FGF4 + PDGF-A + VEGF): 8856; Sox17 Expression, % of positive control (FGF4 + PDGF-A + VEGF): 0.41%; Sox17 Expression, Average Total Intensity (FGF4 + PDGF-A + VEGF): 7.01E+05 |
| O=C1NCCCc2cncc(c2)-c2ncnc(n2)Nc2cccc(c2)CN2CCC1CC2 [Compound 22, 1,8,10,12,16,22,30-Heptaazapentacyclo[22.2.2.1-3,7˜0.1˜9,13˜1-14,18˜]hentriaconta-3(31), 4,6,9(30), 10,12,14(29), 15,17-nonaen-23-one] | 149.19% | 14105 | 1.02% | 1.75E+06 | 137.19% | 12971 | 6.05% | 1.04E+07 | 122.80% | 11610 | 7.77% | 1.33E+07 | 132.44% | 12522 | 4.59% | 7.88E+06 | 175.36% | 16580 | 5.01% | 8.60E+06 | Cell Number, % of positive control [1]: 155.23%; Cell Number, Average Total Cell Number [1]: 14676; Sox17 Expression, % of positive control [1]: 3.27%; Sox17 Expression, Average Total Intensity [1]: 5.61E+06; Cell Number, % of positive control (EGF + PDGF-A + VEGF): 215.48%; Cell Number, Average Total Cell Number (EGF + PDGF-A + VEGF): 20372; Sox17 Expression, % of positive control (EGF + PDGF-A + VEGF): 2.91%; Sox17 Expression, Average Total Intensity (EGF + PDGF-A + VEGF): 4.99E+06; Cell Number, % of positive control (FGF4 + PDGF-A + VEGF): 129.85%; Cell Number, Average Total Cell Number (FGF4 + PDGF-A + VEGF): 12277; Sox17 Expression, % of positive control (FGF4 + PDGF-A + VEGF): 2.86%; Sox17 Expression, Average Total Intensity (FGF4 + PDGF-A + VEGF): 4.90E+06 |
| O=C1NCCCc2cncc(c2)-c2ncnc(n2)Nc2cccc(c2)CN2CCCC1C2 (stereo not drawn) [Compound 17, 3,5,7,14,20,26,31-Heptaazapentacyclo[22.3.1.1-2,6˜1˜8,12˜1˜14,18˜]hentriaconta-1(28), 2(31), 3,5,8(30), 9,11,24,26-nonaen-19-one] | 73.43% | 6942 | 0.74% | 1.27E+06 | 60.69% | 5738 | 1.83% | 3.14E+06 | 144.37% | 13649 | 8.43% | 1.45E+07 | 110.85% | 10480 | 5.23% | 8.97E+06 | 47.10% | 4453 | 0.54% | 9.30E+05 | Cell Number, % of positive control [1]: 109.91%; Cell Number, Average Total Cell Number [1]: 10391; Sox17 Expression, % of positive control [1]: 5.20%; Sox17 Expression, Average Total Intensity [1]: 8.92E+06; Cell Number, % of positive control (EGF + PDGF-A + VEGF): 60.59%; Cell Number, Average Total Cell Number (EGF + PDGF-A + VEGF): 5728; Sox17 Expression, % of positive control (EGF + PDGF-A + VEGF): 1.24%; Sox17 Expression, Average Total Intensity (EGF + PDGF-A + VEGF): 2.14E+06; Cell Number, % of positive control (FGF4 + PDGF-A + VEGF): 139.59%; Cell Number, Average Total Cell Number (FGF4 + PDGF-A + VEGF): 13198; Sox17 Expression, % of positive control (FGF4 + PDGF-A + VEGF): 7.54%; Sox17 Expression, Average Total Intensity (FGF4 + PDGF-A + VEGF): 1.29E+07 |
